Entries after “also recorded” stand apart in the source; their conditions may differ. Like-named read-outs stand apart in the source and are kept apart here.
Assays:
TNF [1] = experiment: In vivo endotoxin shock models (P. acnes model and/or LPS-GAL model, not specified which); set-up: species or system mice; settings: for in vivo TNF levels / protection from endotoxic induced shock: one or both of the in vivo assays (P. acnes / LPS-GAL)
Method: Two models of endotoxin shock have been utilized to determine in vivo TNF activity and are described below. The actual protocoll used in the models is described in Utility Model Examples A and B set out below, i.e. P. Acnes model and LPS-GAL model.
(§1) Briefly, D-gal ([…]) sensitizes various strains of mice to the lethal effects of endotoxin. The administration of D-gal (300-500mg/kg) intra-venously (i.v.) sensitizes the mice to doses of Lipopolysaccharide(LPS ) as low as 0.1 mg. Briefly, male C57BL/6 mice, obtained from Charles River Laboratories (Stone Ridge, New York, USA) of 6-12 weeks of age were injected i.v. with 0.1 mg of LPS from Salmonella typhosa (Difco Laboratories, Detroit, Michigan, USA) admixed with D(+)-gal (Sigma; 500 mg/kg) in 0.20-0.25 ml pyrogen-free saline. Compounds to be tested were administered at various times prior to or following the iv. injection of LPS/D-gal.
(§2) This model is a modification of the previously described protocol for the in vivo induction of TNF as described in Haranaka et al., Cancer Immunol Immunother, 18:87-90, (1984). Treatment with Proprionibacterium Acnes (P. acnes) (1mg/animal i.p.) renders mice susceptible to the lethal effects of LPS injected 10 days later.
(§3) P. acnes was purchased from Burroughs Wellcome (Triangle Park, North Carolina, USA), and […]of the heat-killed bacteria was administered in 0.5 ml pyrogen-free saline by intraperitoneal (i.p.) injection to male C57BL/6 mice, obtained from Charles River Laboratories (Stone Ridge, New York, USA) of 6-12 weeks of age. Ten days later, the mice were injected iv. with 1 mg LPS in 0.25 ml saline. Compounds to be tested were administered at various times prior to or following the injection of LPS. The survival of animals was monitored for 1 week.
(§4) Plasma levels of TNF were measured using a modification of the basic sandwich ELISA method described in Winston et al., Current Protocols in Molecular Biology, Pg. 11.2.1, Ausubel et al., Ed. (1987) John Wiley and Sons, New York, USA. The Elisa employed a hampster monoclonal anti-mouse TNF (Genzyme, Boston, MA, USA) as the capture antibody and a polyclonal rabbit anti-murine TNF (Genzyme, Boston, MA, USA) as the detecting antibody. TNF levels in rat samples were calculated from a standard curve genereated with recombinant murine TNF (Genzyme, Boston, MA, USA).

[2] = test system: IL-1 production by bacterial lipopolysaccharide (LPS)-stimulated human monocytes; settings: cited from earlier work
TNF [3] = experiment: Endotoxin shock in D-gal-sensitized mice (LPS-GAL model), TNF levels by ELISA and survival; assay type: in vivo; settings: for reduction of serum TNF levels: LPS-GAL Model, 100 mg/kg, Figure 4; for survival rate: LPS-GAL model, animals with endotoxic shock, Figure 5, control group 30%
Method: as §1, with “The protocol used to test the compound of the method of the subject invention was essentially as has been described in Galanos et al., Proc. Nat'l Acad. Sci USA, 76:5939-43 (1979) whose disclosure is herein incorporated by reference. Briefly, D-gal” for “Briefly, D-gal”, “of LPS/D-gal. In this model, the control animals usually die 5-6 hr. following the injection of LPS, although on occasion deaths are seen between 24 and 48 hr.” for “of LPS/D-gal.”
as §4, with “USA). TNF levels determined by ELISA correlated with levels detected by the L929 bioassay of Ruff et. al., J. Immunol. 125:1671-1677 (1980), with 1 Unit of activity in the bioassay corresponding to 70 picograms (pg) of TNF in the ELISA. The ELISA detected levels of TNF down to 25 pg/ml.” for “USA).”

5-lipoxygenase = biological target: T1, 5-lipoxygenase (Homo sapiens, UniProt P09917); settings: Lee et al. 1988; cited from earlier work
T1 sequence (P09917 1-674): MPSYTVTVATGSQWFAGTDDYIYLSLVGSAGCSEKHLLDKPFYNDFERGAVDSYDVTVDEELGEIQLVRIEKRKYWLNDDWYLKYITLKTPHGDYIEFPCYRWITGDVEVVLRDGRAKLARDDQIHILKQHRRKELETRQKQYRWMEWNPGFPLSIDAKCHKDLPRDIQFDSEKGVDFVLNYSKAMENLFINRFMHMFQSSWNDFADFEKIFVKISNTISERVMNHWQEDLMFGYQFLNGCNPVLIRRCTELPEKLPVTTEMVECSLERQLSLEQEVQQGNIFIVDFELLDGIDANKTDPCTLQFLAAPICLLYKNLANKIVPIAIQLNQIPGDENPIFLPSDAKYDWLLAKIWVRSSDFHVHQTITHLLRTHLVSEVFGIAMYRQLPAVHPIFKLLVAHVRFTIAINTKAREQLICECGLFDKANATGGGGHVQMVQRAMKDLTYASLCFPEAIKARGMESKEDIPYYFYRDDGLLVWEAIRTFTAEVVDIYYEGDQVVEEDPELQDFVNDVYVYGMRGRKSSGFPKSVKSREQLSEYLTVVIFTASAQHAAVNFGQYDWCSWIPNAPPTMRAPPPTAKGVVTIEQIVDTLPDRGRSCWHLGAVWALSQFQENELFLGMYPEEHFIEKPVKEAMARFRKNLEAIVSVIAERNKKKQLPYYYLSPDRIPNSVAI

TNFa = settings: Badger et al. 1989, cited from earlier work
[4] = test system: TNFa production by monocytes; settings: Lee et al. 1988 and Badger et al. 1989; cited from earlier work
cyclooxygenase = settings: Lee et al. 1988; cited from earlier work
TNF [5] = experiment: Endotoxin shock in P. acnes-sensitized mice (P. acnes/LPS model), TNF levels by ELISA; assay type: in vivo; settings: P acnes/LPS treated mice, increased oral dosage, Figure 1
Method: as §2, §3
Plasma levels of TNF were measured using a modification of the basic sandwich ELISA method described in Winston et al., Current Protocols in Molecular Biology, Pg. 11.2.1, Ausubel et al., Ed. (1987) John Wiley and Sons, New York, USA. […] TNF levels in rat samples were calculated from a standard curve genereated with recombinant murine TNF (Genzyme, Boston, MA, USA). TNF levels determined by ELISA correlated with levels detected by the L929 bioassay of Ruff et. al., J. Immunol. […] The ELISA detected levels of TNF down to 25 pg/ml.

[6] = test system: TNF Production by Human Monocytes; experiment: Inhibitory effect on in vitro LPS induced TNF production by human monocytes (ELISA); assay type: cell-based; settings: Monocyte; LPS (50 ng/ml) induced TNF, human peripheral blood monocytes, compound added 1 hr before LPS, 24 hours; NA - not active; read-out: IC₅₀
Method: The effects of the compounds enumerated above on the in vitro production of TNF by human monocytes was examined using the following protocol..
Bacterial lipopolysaccharide (LPS) was used to induce TNF production by human peripheral blood monocytes. TNF activity was measured by a modification of Winston et al., ELISA, described below. Human peripheral blood monocytes were isolated and purified from either fresh blood preparations from volunteer donors, from blood bank buffy coats, or from plateletpheresis residues according to the procedure of Colotta et al., J. Immunol., 132, 936 (1984). 1 X 10⁶ of such monocytes were plated in 24-well plates at a concentration of 1-2 million/ml per well. The cells were allowed to adhere for 2 hours, after which time non-adherent cells were removed by gentle washing. Test compounds were then added to the cells for 1 hour (hr) before the addition of LPS (50 ng/ml), and the cultures were incubated at 37 °C for an additional 24 hours. At the end of the incubation period, culture supernatants were removed and clarified of cells and all debris. Culture supernatants were immediately assayed for TNF levels in the manner described below.
Levels of TNF were mesured using a modification of the basic sandwich ELISA assay method described in Winston et al., Current Protocols in Molecular Biology. Page 11.2.1, Ausubel et al., Ed. (1987) John Wiley and Sons, New York, USA The Elisa employes a murine monoclonal anti-human TNF antibody, described below, as the capture antibody and a polyclonal rabbit anti-human TNF , described below, as the second antibody. For detection, a peroxidase-conjgated goat anti-rabbit antibody (Boehringer Mannheim, Indianopolis, Indiana, USA, Catalog #605222) was added followed by a substrate for peroxidase (1mg/ml orthophenylenediamine with 0.1% urea peroxide). TNF levels in samples were calculated from a standard curve genereated with recombinant human TNF produced in E. Coli (obtained from SmithKline Beecham Pharmaceuticals, King of Prussisa, PA, USA).
Monoclonal antibodies to human TNF were prepared from spleens of BALB/c mice immunized with recombinant human TNF using a modification of the method of Kohler and Millstein, Nature 256: 495(1975), the entire disclosure of which is hereby incorporated by reference. Polyclonal rabbit anti-human TNF antibodies were prepared by repeated immunization of New Zeland White (NZW) rabbits with recombinant human TNF emulsified in complete Freund's adjuvant (DIFCO, IL., USA).

O=S1(=O)CCn2c1nc(-c1ccc(F)cc1)c2-c1ccncc1 [6-(4-Fluorophenyl)-5-(4-pyridyl)-2,3-dihydroimidazo[2,1-b]thiazole-1,1-dioxide]
in vivo TNF levels (TNF [1]): inhibited in vivo TNF levels
protection from endotoxic induced shock (TNF [1]): protected the animals from endotoxic induced shock

Fc1ccc(-c2nc3n(c2-c2ccncc2)CCS3)cc1 [Compound 1, 6-(4-Flurophenyl)-5-(4′pyridyl)-2,3-dihydroimidazo[2,1-b]-thiazole]
IL-1 production ([2]; Lee et al. 1988, listed as 5-(4-pyridyl)-6(4-fluorophenyl)-2,3-dihydroimidazo(2,1-B)-thiazole): inhibit
IL-1 production ([2]; Lee et al. 1988, listed as 5-(4-pyridyl)-6(4-fluorophenyl)-2,3-dihydroimidazo(2,1-B)thiazole): potent inhibitor
reduction of serum TNF levels (TNF [3]): reduction of serum TNF levels
survival rate (TNF [3]): 100%
TNF production (TNF [3]; LPS-Gal mouse model, i.p. injection, Figure 3): inhibitis TNF production
5-lipoxygenase-mediated arachidonate metabolism (5-lipoxygenase): inhibits
circulating levels of TNFa (TNFa; mouse models of LPS-induced shock): inhibition of circulating levels of TNFa
protection against LPS-induced shock (TNFa; two mouse models): protection
protection from the lethal effects of endotoxin shock (TNF [1]; P. Acnes model and LPS-GAL model): protection from the lethal effects of endotoxin shock
in vivo TNF levels (TNF [1]): reduce the in vivo level of tumor necrosis factor (TNF)
TNFa production by monocytes [4]: inhibit
cyclooxygenase-mediated arachidonate metabolism (cyclooxygenase): inhibits

C[S+]([O-])c1ccc(-c2nc3n(c2-c2ccncc2)CCC3)cc1 (stereo not drawn) [Compound 2, 2-(4-Methylsulfoxyphenyl)3-(4-pyridyl)-6,7-dihydro[5H]-pyrrolo-[1,2-a]imidazole]
serum TNF levels (TNF [5]): reduction in serum TNF levels
reduction of serum TNF levels (TNF [3]): reduction of serum TNF levels
survival rate (TNF [3]): 100%
in vivo TNF levels (TNF [1]): in vivo activity; also recorded: reduce the in vivo level of tumor necrosis factor (TNF)

CSc1ccc(-c2nc3n(c2-c2ccncc2)CCC3)cc1 [Compound 3, 2-(4-methylthiophenyl)-3-(4-pyridyl)-6,7-dihydro-[5H]-pyrrolo[1,2-a]-imidazole]
IC50 [6]: 1000 nM

COc1ccc(-c2nc3n(c2-c2ccncc2)CCC3O)cc1 (stereo not drawn) [Compound 8, 5,6-dihydro-2-(4-methoxyphenyl)-3-(4-pyridinyl)-[7H]-pyrrolo[1,2-a]-imidazole-7-ol]
IC50 [6]: 1000 nM

CC(=O)OCSc1ccc(-c2nc3n(c2-c2ccncc2)CCC3)cc1 [Compound 9, 2-(4-Acetoxymethylthiophenyl)3-(4-pyridyl)-6,7-dihydro[5H]pyrrolo-[1,2-a]-imidazole]
IC50 [6]: 3000 nM

COc1ccc(-c2nc3n(c2-c2ccncc2)CCC3)cc1 [Compound 10, 2-(4-Methoxyphenyl)-3-(4-pyridyl)-6,7-dihydro-[5H]-pyrrolo-[1,2-a]imidazole]
IC50 [6]: 500 nM

O=S1(=O)CCn2c1nc(-c1ccc(F)cc1)c2-c1ccncc1 [Compound 14, 6-(4-Fluorophenyl)-5-(4-pyridyl)-2,3-dihydroimidazo[2,1-b]thiazole-1,1-dioxide]
IC50 [6]: 9000 nM

CC[S+]([O-])c1ccc(-c2nc3n(c2-c2ccncc2)CCC3)cc1 (stereo not drawn) [Compound 15, 2-(4-Ethylsulfinylphenyl)-3-(4-pyridyl)-6,7-dihydro[5H]pyrrolo[1,2-a]imidazole]
IC50 [6]: 7000 nM
in vivo TNF levels (TNF [1]): inhibited in vivo TNF levels
protection from endotoxic induced shock (TNF [1]): protected the animals from endotoxic induced shock

CSc1ccc(-c2nc3n(c2-c2ccnc(C)c2)CCC3)cc1 [Compound 16, 2-(4-Methylthiophenyl)-3-[4-(2-methylpyridyl)]-6,7-dihydro[5H]pyrrolo-[1,2-a]imidazole]
in vivo TNF levels (TNF [1]): inhibited in vivo TNF levels

From patent publication EP0403251A2, “Monokine activity interference” (SMITHKLINE BEECHAM CORPORATION, priority 1989, dated 1990)
